Measurements: doi:10.1101/2021.04.08.439011v1 (biorxiv, 2021)

What was measured:
Conditions in all cases: 1 µM; binder
RIOK2 = RIOK2 (Homo sapiens, UniProt Q9BVS4)
p38-beta = p38-beta (Homo sapiens, UniProt Q15759)
KIT-autoinhibited = KIT-autoinhibited (Homo sapiens, UniProt P10721)
CSNK1A1 = CSNK1A1 (Homo sapiens, UniProt P48729)
CDKL3 = CDKL3 (Homo sapiens, UniProt Q8IVW4)
TSSK1B = TSSK1B (Homo sapiens, UniProt Q9BXA7)
NIM1 = NIM1 (Homo sapiens, UniProt Q8IY84)
FLT3(K663Q) = FLT3(K663Q) (Homo sapiens, UniProt P36888, K663Q)
ERBB2 = ERBB2 (Homo sapiens, UniProt P04626)
Chain of ERBB2 (P04626 whole entry): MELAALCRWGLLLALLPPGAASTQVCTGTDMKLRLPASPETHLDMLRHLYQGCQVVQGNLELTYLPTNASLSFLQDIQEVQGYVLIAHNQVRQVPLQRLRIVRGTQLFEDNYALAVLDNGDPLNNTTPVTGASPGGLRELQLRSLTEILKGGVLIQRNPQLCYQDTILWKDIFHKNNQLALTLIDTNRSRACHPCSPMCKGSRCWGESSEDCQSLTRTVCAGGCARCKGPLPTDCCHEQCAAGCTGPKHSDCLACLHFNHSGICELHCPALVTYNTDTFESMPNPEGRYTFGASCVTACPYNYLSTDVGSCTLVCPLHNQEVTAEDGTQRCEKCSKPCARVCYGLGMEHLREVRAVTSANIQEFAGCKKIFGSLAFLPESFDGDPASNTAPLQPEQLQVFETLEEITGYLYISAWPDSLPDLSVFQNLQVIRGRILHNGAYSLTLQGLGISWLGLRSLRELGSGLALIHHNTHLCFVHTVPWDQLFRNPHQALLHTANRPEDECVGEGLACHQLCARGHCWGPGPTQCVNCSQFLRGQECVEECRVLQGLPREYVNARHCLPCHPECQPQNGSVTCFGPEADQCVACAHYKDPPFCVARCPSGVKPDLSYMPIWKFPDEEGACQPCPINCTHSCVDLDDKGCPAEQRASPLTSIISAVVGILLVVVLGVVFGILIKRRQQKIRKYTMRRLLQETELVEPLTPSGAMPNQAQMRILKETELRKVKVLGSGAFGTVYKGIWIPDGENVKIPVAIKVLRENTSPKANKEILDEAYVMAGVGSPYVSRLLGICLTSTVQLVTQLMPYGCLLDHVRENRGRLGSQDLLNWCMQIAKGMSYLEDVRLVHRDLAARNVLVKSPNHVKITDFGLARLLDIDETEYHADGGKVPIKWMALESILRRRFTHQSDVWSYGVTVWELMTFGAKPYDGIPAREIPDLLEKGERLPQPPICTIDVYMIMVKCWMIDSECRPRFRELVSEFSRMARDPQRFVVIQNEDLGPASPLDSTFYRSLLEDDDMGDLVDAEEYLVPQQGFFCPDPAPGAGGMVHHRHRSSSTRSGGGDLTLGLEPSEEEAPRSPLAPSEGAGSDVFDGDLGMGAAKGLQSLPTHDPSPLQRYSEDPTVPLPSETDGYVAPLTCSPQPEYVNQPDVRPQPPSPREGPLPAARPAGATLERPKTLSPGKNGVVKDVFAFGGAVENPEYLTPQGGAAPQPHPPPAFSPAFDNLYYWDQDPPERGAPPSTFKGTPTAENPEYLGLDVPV

WNK4 = WNK4 (Homo sapiens, UniProt Q96J92)
SYK = SYK (Homo sapiens, UniProt P43405)
FGFR3(G697C) = FGFR3(G697C) (Homo sapiens, UniProt P22607, G697C)
MYO3A = MYO3A (Homo sapiens, UniProt Q8NEV4)
PIK3CA(C420R) = PIK3CA(C420R) (Homo sapiens, UniProt P42336, C420R)
YES = YES (Homo sapiens, UniProt P07947)
FLT3-autoinhibited = FLT3-autoinhibited (Homo sapiens, UniProt P36888)
DCAMKL2 = DCAMKL2 (Homo sapiens, UniProt Q8N568)
BRK = BRK (Homo sapiens, UniProt Q13882)
CSF1R-autoinhibited = CSF1R-autoinhibited (Homo sapiens, UniProt P07333)
SNRK = SNRK (Homo sapiens, UniProt Q9NRH2)
DMPK = DMPK (Homo sapiens, UniProt Q09013)
CDKL1 = CDKL1 (Homo sapiens, UniProt Q00532)
TTK = TTK (Homo sapiens, UniProt P33981)
BMPR1B = BMPR1B (Homo sapiens, UniProt O00238)
DYRK1A = DYRK1A (Homo sapiens, UniProt Q13627)
PRKG1 = PRKG1 (Homo sapiens, UniProt Q13976)
NEK2 = NEK2 (Homo sapiens, UniProt P51955)
Chain of NEK2 (P51955 whole entry): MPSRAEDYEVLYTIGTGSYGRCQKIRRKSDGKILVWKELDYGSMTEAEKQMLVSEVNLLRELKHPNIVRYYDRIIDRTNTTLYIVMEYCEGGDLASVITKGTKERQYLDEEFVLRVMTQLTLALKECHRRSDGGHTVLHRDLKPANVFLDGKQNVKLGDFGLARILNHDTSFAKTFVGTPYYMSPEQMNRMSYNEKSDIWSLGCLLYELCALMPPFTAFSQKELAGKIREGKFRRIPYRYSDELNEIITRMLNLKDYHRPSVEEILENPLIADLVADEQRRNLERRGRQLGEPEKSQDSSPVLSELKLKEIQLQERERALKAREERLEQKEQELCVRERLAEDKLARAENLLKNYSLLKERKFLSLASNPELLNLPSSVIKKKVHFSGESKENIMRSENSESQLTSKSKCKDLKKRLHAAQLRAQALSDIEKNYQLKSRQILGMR

CAMK1 = CAMK1 (Homo sapiens, UniProt Q14012)
Chain of CAMK1 (Q14012 whole entry): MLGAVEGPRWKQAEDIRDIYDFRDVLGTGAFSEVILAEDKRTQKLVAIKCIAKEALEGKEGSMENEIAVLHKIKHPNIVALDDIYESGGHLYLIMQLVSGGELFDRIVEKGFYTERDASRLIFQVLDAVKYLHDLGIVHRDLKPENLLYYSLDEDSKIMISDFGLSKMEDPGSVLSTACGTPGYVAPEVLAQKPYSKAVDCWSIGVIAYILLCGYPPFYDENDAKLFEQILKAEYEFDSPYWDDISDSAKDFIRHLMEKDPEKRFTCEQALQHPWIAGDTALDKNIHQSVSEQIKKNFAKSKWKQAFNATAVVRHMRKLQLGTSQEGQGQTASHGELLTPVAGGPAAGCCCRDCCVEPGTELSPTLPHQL

NEK9 = NEK9 (Homo sapiens, UniProt Q8TD19)
CDKL5 = CDKL5 (Homo sapiens, UniProt O76039)
Chain of CDKL5 (O76039 whole entry): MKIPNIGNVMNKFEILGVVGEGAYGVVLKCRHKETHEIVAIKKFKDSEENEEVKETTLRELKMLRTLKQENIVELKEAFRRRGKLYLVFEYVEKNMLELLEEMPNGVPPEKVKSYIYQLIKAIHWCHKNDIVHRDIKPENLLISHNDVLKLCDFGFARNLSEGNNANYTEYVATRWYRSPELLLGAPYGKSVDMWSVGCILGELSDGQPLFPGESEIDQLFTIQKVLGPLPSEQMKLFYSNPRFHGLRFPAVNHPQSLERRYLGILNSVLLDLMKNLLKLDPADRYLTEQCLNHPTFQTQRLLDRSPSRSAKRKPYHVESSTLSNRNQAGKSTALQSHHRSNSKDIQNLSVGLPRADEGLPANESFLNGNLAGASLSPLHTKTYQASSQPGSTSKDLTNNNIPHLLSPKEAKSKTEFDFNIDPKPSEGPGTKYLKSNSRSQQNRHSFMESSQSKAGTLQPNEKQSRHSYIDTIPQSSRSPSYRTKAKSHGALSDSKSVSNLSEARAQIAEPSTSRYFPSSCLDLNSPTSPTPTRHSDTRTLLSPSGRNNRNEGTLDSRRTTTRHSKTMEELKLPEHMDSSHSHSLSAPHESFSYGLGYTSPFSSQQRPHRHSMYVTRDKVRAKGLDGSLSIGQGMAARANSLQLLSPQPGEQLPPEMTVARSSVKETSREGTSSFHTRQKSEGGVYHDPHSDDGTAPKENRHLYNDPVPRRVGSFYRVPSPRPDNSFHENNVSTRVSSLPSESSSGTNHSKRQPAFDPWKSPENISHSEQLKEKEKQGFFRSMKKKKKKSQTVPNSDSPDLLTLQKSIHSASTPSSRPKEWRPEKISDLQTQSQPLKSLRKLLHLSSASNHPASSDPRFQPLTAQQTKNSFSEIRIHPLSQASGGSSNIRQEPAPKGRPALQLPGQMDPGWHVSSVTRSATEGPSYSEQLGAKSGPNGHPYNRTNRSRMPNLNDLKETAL

Chain of NIM1 (Q8IY84 whole entry): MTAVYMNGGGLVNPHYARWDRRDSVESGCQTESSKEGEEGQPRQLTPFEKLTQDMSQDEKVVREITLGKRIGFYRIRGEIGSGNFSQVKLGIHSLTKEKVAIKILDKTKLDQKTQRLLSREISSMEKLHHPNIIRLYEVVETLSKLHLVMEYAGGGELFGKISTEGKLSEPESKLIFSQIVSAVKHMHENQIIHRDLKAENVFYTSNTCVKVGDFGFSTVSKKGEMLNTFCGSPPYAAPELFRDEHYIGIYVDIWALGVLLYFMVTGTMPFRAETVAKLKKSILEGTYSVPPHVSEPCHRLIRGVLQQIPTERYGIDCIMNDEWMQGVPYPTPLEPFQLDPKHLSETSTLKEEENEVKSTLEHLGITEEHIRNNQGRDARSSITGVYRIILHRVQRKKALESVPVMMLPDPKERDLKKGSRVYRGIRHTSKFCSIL
Chain of CDKL3 (Q8IVW4 whole entry): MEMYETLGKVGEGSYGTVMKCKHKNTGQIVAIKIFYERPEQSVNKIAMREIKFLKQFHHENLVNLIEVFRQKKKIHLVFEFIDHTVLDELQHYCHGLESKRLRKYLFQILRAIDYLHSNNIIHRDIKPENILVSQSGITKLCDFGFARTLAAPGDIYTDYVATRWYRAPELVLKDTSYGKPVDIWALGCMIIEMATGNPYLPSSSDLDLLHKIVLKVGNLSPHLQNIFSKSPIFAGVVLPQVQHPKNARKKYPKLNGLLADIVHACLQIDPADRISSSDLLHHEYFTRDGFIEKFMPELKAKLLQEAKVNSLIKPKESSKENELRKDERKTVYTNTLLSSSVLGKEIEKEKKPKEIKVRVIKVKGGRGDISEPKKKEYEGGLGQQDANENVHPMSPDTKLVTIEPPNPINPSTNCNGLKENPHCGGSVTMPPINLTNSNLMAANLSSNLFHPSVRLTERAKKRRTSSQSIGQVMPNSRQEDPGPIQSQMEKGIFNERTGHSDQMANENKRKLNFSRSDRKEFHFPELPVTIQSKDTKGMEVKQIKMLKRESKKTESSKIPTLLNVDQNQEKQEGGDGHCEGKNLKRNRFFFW
Chain of KIT-autoinhibited (P10721 whole entry): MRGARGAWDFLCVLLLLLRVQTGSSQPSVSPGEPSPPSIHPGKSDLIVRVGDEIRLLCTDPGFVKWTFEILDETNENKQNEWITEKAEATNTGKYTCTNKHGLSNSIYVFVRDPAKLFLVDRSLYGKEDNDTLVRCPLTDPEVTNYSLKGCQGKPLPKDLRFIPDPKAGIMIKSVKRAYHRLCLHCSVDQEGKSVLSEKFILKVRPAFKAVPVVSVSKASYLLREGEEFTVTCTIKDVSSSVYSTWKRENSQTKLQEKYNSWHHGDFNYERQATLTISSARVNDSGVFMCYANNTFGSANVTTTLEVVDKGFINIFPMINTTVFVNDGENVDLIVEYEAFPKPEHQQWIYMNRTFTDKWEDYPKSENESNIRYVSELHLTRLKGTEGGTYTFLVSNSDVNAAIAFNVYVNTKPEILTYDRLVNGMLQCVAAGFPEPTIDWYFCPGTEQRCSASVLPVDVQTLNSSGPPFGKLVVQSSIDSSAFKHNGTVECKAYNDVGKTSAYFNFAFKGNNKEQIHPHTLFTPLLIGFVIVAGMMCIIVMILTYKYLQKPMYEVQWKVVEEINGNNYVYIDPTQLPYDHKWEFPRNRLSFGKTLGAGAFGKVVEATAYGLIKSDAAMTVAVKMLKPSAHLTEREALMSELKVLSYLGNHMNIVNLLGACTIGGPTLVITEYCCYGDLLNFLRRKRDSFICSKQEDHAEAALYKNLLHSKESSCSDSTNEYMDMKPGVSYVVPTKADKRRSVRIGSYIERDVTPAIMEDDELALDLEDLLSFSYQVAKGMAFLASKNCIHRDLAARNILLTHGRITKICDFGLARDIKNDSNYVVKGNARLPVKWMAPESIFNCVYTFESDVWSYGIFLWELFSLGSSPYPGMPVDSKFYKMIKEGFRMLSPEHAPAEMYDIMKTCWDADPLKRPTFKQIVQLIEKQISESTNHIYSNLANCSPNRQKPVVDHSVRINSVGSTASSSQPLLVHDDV

**Q.** Which results are given for `CNc1ncc2cc(-c3ccc(-c4cccc(C)n4)cc3Cl)c(=O)n(C[C@H]3OC[C@H](N)CO3)c2n1` [compound 6, G-5555]?
**A.** Percent Control (RIOK2): 100%; Percent Control (p38-beta): 100%; Percent Control (KIT-autoinhibited): 81%; Percent Control (CSNK1A1): 89%; Percent Control (CDKL3): 100%; Percent Control (TSSK1B): 100%; Percent Control (NIM1): 100%; Percent Control (FLT3(K663Q)): 100%; Percent Control (ERBB2): 100%; Percent Control (WNK4): 18%; Percent Control (SYK): 100%; Percent Control (FGFR3(G697C)): 100%; Percent Control (MYO3A): 96%; Percent Control (PIK3CA(C420R)): 100%; Percent Control (YES): 100%; Percent Control (FLT3-autoinhibited): 100%; Percent Control (DCAMKL2): 51%; Percent Control (BRK): 100%; Percent Control (CSF1R-autoinhibited): 84%; Percent Control (SNRK): 89%; Percent Control (DMPK): 100%; Percent Control (CDKL1): 100%; Percent Control (TTK): 97%; Percent Control (BMPR1B): 96%; Percent Control (DYRK1A): 100%; Percent Control (PRKG1): 100%; Percent Control (NEK2): 60%; Percent Control (CAMK1): 59%; Percent Control (NEK9): 100%; Percent Control (CDKL5): 97%
